# US10172835B2, “Anticancer agent composition” (J-Pharma Co., Ltd., priority 2014, dated 2019)
# Experiments:
# [1] = system: KO99L cells (tPTEN−/− tumor cell line); assay: WST-1 cell viability assay on KO99L cells; assay type: cell-based, murine
# Description: (§1) Two different assays were employed: i) In a 96-well plate format, cells (4.0±0.1×10^4 per well; 100 μL) were incubated with effectors (48 h, 37° C.; n=4 per experiment) and then WST-1 reagent (10 μL; Roche Diagnostics) added to each well of 96-well plates, incubated, and the formazan production was measured at 490 nm; and ii) cells (2.0±0.1×10^4 per well; 100 μL) were incubated with effectors (48 h, 37° C.; n=4 per experiment) and then bromodeoxyuridine reagent (10 μL/well; Roche Diagnostics) was added to each well and incubated (8 h, 37° C.). The cells were then fixed, denatured and incubated with anti-BrdU-conjugated with peroxidase (POD) antibody (100 μL/well). Colorimetric substrate (TMB: tetramethyl-benzidine; 100 μL/well) was added and BrdU incorporation quantified via optical density measurement (450 nm) which corresponds to DNA synthesis and proliferating cells.
# [2] = system: KO99L-LUC cells (tPTEN−/− tumor); assay: In vivo growth of subcutaneous KO99L-LUC tumors in nude mice (volume, bioluminescence, immunohistochemistry)
# Description: All mice in each experimental group were subcutaneous injected with 99KOL-LUC T-lymphoma cells (200 μL; 5.0±0.1×10^6) stably expressing a reporter luciferase gene. After two days post injection, mice were intraperitoneally administered COMPOUND-JP (50 mg/kg/day/5 days a week) which had been prepared by dissolving drug powder and mixing into saline (NaCl 0.9%). Body weights and tumor volumes were measured every five days. Tumor volumes were calculated according to the mathematical formula: V=(L*W^2)/2 (L:Length; W:Width). To conduct the bioluminescence imaging, mice received an intraperitoneal injection (150 μL, 30 mg/mL) of D-luciferin (Caliper Life Science) and were anesthetized via inhaled isoflurane (2.0%). Bioluminescence signals were monitored using the Photon imager (Biospace Lab) equipped with a highly sensitive cooled CCD camera; all images were collected 10 min post D-luciferin injection. Data were analyzed using total photon flux emission (photons/second) focused on the regions of interest (ROI) enveloping the tumor region.
# Sections (4 μm) in paraffin blocks of dissected tumors were labeled with a primary rabbit phospho-S6RP antibody (#4858, Cell Signaling Technology). A second, anti-rabbit antibody conjugated with peroxidase (HRP) (SignalStain®, #8114, Cell Signaling Technology) was added to the sections before revelation with diaminobenzidine (DAB) as recommended by the manufacturer. For necrosis evaluation, sections were stained with hematoxylin/eosin/safran (HES). The images were analyzed and necrosis areas quantified using the ImageJ software (NIH).
# primary T-ALL cells = assay: Cell viability of human T-ALL primary samples; assay type: cell-based; details: primary T-ALL cells from patients
# Description: Informed consent was obtained according to institutional guidelines. Heparin-treated blood was obtained from three T-ALL patients and from two healthy donors. Patient lymphoblasts were isolated within 24 hours post collection using Ficoll-Paque PLUS density gradient following vendor recommended procedures (GE Healthcare Life Sciences).
# as §1
# primary tPTEN−/− cells = assay: Cell death of primary tPTEN−/− lines, PI staining and Facs; assay type: cell-based, murine; details: 2.5-20.0 μM, 48 h, five primary tumors
# LC3 = assay: Western blot of LC3 processing (autophagy), KO99L cells; assay type: cell-based, murine; details: 10.0 μM
# Description: (§2) Cell extracts were prepared using a cell lysis buffer (50 mM HEPES, pH 7.4, 150 mM NaCl, 20 mM EDTA, 100 mM NaF, 10 mM Na3VO4, 0.5% nonyl phenoxypolyethoxylethanol (NP40) supplemented with a cocktail of protease inhibitors. After SDS-PAGE separation and transfer to nitrocellulose immunoblotting was performed using the following antibodies against: Akt (Cell Signaling Technologies, #9272), CHOP (#2895), cleaved caspase 3 (#9664), c-Myc (#9402), eIF2a (#9721), 4EBP1 (#9644), LC3A/B (#12741), PARP (#9542), pJnk (T183/Y185) (#9251), pSer235-236-S6RP (#4856), pSer473-Akt (#9271), pSer65-4EBP1 (#9451) and S6RP (#2217); Bax (Sigma-Aldrich, B8429); PUMA (Abcam, ab54288); Bak (Millipore, 06536); ATF4 (Santa Cruz Biotechnologies, sc200), GADD34 (sc8327), Hsp60 (sc-1722), Hsp90 (sc-13119) and XBP1 (sc-7160); ATF6 (Imgenex, IMG-273).
# c-myc = assay: Western blot of c-myc levels, KO99L cells; assay type: cell-based, murine; details: COMPOUND-JP 10.0 μM 2.0-24 h; Velcade 8 nM 24 h; KU0063794 10.0 μM; MK-2206 10.0 μM; rapamycin 100 nM
# Description: as §2
# CHOP / mTOR = assay: Western blot of CHOP induction and S6RP phosphorylation in KO99-RJ cells; assay type: cell-based, murine
# Description: as §2
# [3] = system: Panc-1 cell derived from human pancreatic cancer; assay: MTT proliferation of Panc-1 cells; assay type: cell-based; details: Panc-1, culture 5 days
# Description: The culture in the absence of COM-JP and in the presence of COM-JP with different concentrations in the culture medium of each cancer cell was continued for 5 days. Proliferation activity of the cell on each elapsed day was measured by a MTT method.
# [4] = system: HT-29 cell derived from human large intestine cancer; assay: Tumor growth in nude mouse SOI model (HT-29 grafted onto wall of large intestine); assay type: in vivo
# Description: […] was expressed in a HT-29 cell derived from human large intestine cancer, and which was grafted onto the wall of large intestine of a mouse to produce a metamouse. According to this, the quantity of the size of the tumor could be determined with time with emission intensity. In FIG. 16, the size of tumor in each treatment group was shown with a bar graph. Group 1 is a control group, Groups 2 to 4 are a group in which COM-JP was intraperitoneally administered alone at 3.1, 12.5, and 50 mg/kg weight/day every day for 4 weeks, Group 5 is a group in which CDDP was intraperitoneally administered alone at 2.5 mg/kg/day three times on day 0, day 6, and day 13, Groups 6 to 8 are a group in which Groups 2 to 4 and Group 5 were combined to be administered in combination, and Group 9 is a group in which COM-JP was orally administered at 300 mg/kg/day every day for 4 weeks.
# tPTEN−/− cells = assay: Global protein synthesis (data not shown); assay type: cell-based, murine
compound,measurement,setting,value
"Nc1cc(COc2c(Cl)cc(C[C@H](N)C(=O)O)cc2Cl)c2oc(-c3ccccc3)nc2c1 [COMPOUND-JP, O-(5-amino-2-phenylbenzoxazole-7-yl)methyl-3,5-dichloro-L-tyrosine]",cell viability,"[1]; KO99L cells, 2.5-10.0 μM, 48 h",dose-dependent decrease
same,reversal of the viability decrease by Essential Amino Acids (EAA) in the medium,"[1]; KO99L cells, 2.5-10.0 μM, NEAA no rescue",partially reversed
same,cytotoxicity at 40 µM,"[1]; Mus musculus, KO99-S (parental KO99L), 40 μM, 48 h, read-out: decrease in cell viability",95 to 100%
same,IC50,"[1]; Mus musculus, KO99L tPTEN−/− cells, 48 h, read-out: IC50, cell viability (drug concentration to kill half of the cells)",2400 nM
same,decrease of mean tumor volume,"[2]; 50 mg/kg/day, day 18, vs vehicle treated group, p<0.05",45%
same,decrease of tumor luminescence,"[2]; 50 mg/kg/day, p<0.05",59%
same,necrotic response within the tumors,"[2]; treated mice, untreated 4.6+/−0.5%",10.5+/−0.5%
same,pS6RP staining in tumors,"[2]; tumors from treated mice, 50 mg/kg/day",dramatically decreased
same,cell viability (COMPOUND-JP sensitivity),primary T-ALL cells,concentration dependent
same,cell death in primary tPTEN−/− cells,primary tPTEN−/− cells,dose dependent
same,LC3-II accumulation,LC3,stimulated LC3-II accumulation
same,c-myc protein level,c-myc,decreased
same,integrated stress response (CHOP induction),CHOP / mTOR,failed to trigger the integrated stress response
same,mTOR inhibition (S6RP phosphorylation),CHOP / mTOR,failed to inhibit mTOR
same,proliferation activity,[3],dose-dependent decrease
same,"efficacy on tumor growth, single administration","[4]; COM-JP i.p. 3.1, 12.5, 50 mg/kg/day 4 weeks, CDDP i.p. 2.5 mg/kg/day day 0, 6, 13",not recognized
same,increase of the tumor,"[4]; Group 9: orally 300 mg/kg/day every day for 4 weeks, vs untreated control",more significantly decreased
same,interference with global protein synthesis,tPTEN−/− cells,did not observe any interference
